Results from patent US10336732B2, “1-heterocyclyl isochromanyl compounds and analogs for treating CNS disorders” (Sunovion Pharmaceuticals Inc., priority 2015, dated 2019).

What was measured:
[1] = target: T1, κ (KOP) (Rattus norvegicus, UniProt P34975); test: In vitro radioligand binding assay, κ (KOP), [3H]U 69593; conditions: rat recombinant (CHO cells)
T1 construct: expressed in transfected cells; host or cells: CHO cells
Method: Certain compounds were tested by in vitro binding assays using standard procedures. […] These receptors and assays are well known to those skilled in the art, as exemplified by the following: Abramovitz, M. et al. (2000), Biochem. Biophys. Acta., 1483: 285-293 (EP4, IP (PGI2)); Aharony, D. et al. (1993), Mol. Pharmacol., 44: 356-363 (NK2); Ardati, A. et al. (1997), Mol. Pharmacol., 51: 816-824 (NOP (ORL1)); Bignon, E. et al. (1999), J. Pharmacol. Exp. Ther. 289: 742-751 (CCK1 (CCKA)); Bloomquist, B. T. et al. (1998), Biochem. Biophys. Res. Commun., 243: 474-479 (GAL2); Brockhaus, M. et al. (1990), Proc. Natl. Acad. Sci. U.S.A., 87: 3127-3131 (TNF-α); Brown, G. B. (1986), J. Neurosci., 6: 2064-2070 (Na+ channel (site 2)); Buchan, K. W. et al. (1994), Brit. J. Pharmacol., 112: 1251-1257 (ETA); Cesura, A. M. et al. (1990), Mol. Pharmacol., 37: 358-366 (MAO-A); Choi, D. S. et al. (1994), FEBS Lett., 352: 393-399 (5-HT2B); Clark, A. F. et al. (1996), Invest. Ophtalmol. Vis. Sci., 37: 805-813 (GR); Couvineau, A. et al. (1985), Biochem. J., 231: 139-143 (VPAC1 (VIP1)); Dorje, F. et al. (1991), J. Pharmacol. Exp. Ther., 256: 727-733 (M1, M2, M3, M4); Ferry, G. et al. (2001), Eur. J. Pharmacol., 417: 77-89 (PPARγ); Fuchs, S. et al. (2001), Mol. Med., 7: 115-124 (ETB); Fuhlendorff, J. et al. (1990), Proc. Natl. Acad. Sci. U.S.A., 87: 182-186 (Y2); Ganapathy M E. et al. (1999), J. Pharmacol. Exp. Ther., 289: 251-260 (sigma (non-selective)); Gopalakrishnan, M. et al. (1996), J. Pharmacol. Exp. Ther., 276: 289-297 (N neuronal α4β2); Greengrass, P. and Bremner, R. (1979), Eur. J. Pharmacol., 55: 323-326 (α1 (non-selective)); Grandy, D. K. et al. (1989), Proc. Natl. Acad. Sci. U.S.A., 86: 9762-9766 (D25); Guard, S. et al. (1993), Eur. J. Pharmacol., 240:177-184 (BB (non-selective)); Heuillet, E. et al. (1993), J. Neurochem., 60: 868-876 (NK1, P2X); Hope, A. G. et al. (1996), Brit. […]

[2] = target: T2, 5-HT5a (Homo sapiens, UniProt P47898); test: In vitro radioligand binding assay, 5-HT5a, [3H]LSD; conditions: human recombinant (HEK-293 cells)
T2 construct: expressed in transfected cells; host or cells: HEK-293 cells
Method: (§1) Certain compounds were tested by in vitro binding assays using standard procedures. […] These receptors and assays are well known to those skilled in the art, as exemplified by the following: Abramovitz, M. et al. (2000), Biochem. Biophys. Acta., 1483: 285-293 (EP4, IP (PGI2)); Aharony, D. et al. (1993), Mol. Pharmacol., 44: 356-363 (NK2); Ardati, A. et al. (1997), Mol. Pharmacol., 51: 816-824 (NOP (ORL1)); Bignon, E. et al. (1999), J. Pharmacol. Exp. Ther. 289: 742-751 (CCK1 (CCKA)); Bloomquist, B. T. et al. (1998), Biochem. Biophys. Res. Commun., 243: 474-479 (GAL2); Brockhaus, M. et al. (1990), Proc. Natl. Acad. Sci. U.S.A., 87: 3127-3131 (TNF-α); Brown, G. B. (1986), J. Neurosci., 6: 2064-2070 (Na+ channel (site 2)); Buchan, K. W. et al. (1994), Brit. J. Pharmacol., 112: 1251-1257 (ETA); Cesura, A. M. et al. (1990), Mol. Pharmacol., 37: 358-366 (MAO-A); Choi, D. S. et al. (1994), FEBS Lett., 352: 393-399 (5-HT2B); Clark, A. F. et al. (1996), Invest. Ophtalmol. Vis. […]

[3] = system: sigma (non-selective); test: In vitro radioligand binding assay, sigma (non-selective), [3H]DTG, Jurkat cells; conditions: Jurkat cells (endogenous)
Method: as §1

T1 sequence (P34975 whole entry): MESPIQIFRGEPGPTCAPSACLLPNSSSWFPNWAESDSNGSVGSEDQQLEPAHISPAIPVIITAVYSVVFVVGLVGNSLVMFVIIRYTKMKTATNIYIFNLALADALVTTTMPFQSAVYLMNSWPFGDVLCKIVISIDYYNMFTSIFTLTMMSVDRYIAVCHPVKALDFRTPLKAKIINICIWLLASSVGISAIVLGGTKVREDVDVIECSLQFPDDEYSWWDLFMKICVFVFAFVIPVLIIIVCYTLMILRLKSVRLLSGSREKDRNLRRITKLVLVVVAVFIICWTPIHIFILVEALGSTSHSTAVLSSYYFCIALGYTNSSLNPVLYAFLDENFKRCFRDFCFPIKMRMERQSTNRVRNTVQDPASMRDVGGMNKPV
T2 sequence (P47898 whole entry): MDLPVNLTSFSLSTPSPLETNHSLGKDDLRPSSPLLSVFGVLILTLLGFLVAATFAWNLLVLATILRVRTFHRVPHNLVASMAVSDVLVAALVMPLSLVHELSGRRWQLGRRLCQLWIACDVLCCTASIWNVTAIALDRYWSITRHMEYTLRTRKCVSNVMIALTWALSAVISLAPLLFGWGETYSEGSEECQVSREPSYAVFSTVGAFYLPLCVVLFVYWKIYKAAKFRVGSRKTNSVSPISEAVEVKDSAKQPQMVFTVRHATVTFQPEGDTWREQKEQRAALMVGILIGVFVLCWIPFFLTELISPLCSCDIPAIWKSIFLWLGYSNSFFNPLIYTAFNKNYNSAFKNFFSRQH

Row | SMILES | κ (KOP) percent inhibition of specific binding [1] | 5HT5a percent inhibition of specific binding [2] | sigma percent inhibition of specific binding [3]
1 | Fc1ccc2c(c1)[C@H]([C@@H]1CCCN1)OCC2 [Compound I-5, (2S)-2-((R)-7-fluoroisochroman-1-yl)pyrrolidine] | 71% | – | –
2 | Clc1ccc2c(c1)[C@H]([C@@H]1CCCN1)OCC2 [Compound I-29, (S)-2-((R)-7-chloroisochroman-1-yl)pyrrolidine] | 89% | – | –
3 | Fc1cccc2c1[C@H]([C@@H]1CCN1)OCC2 [Compound I-83, (S)-2-((R)-8-fluoroisochroman-1-yl)azetidine] | – | 58% | –
4 | Fc1ccc2c(c1)CCO[C@H]2[C@@H]1CCN1 [Compound I-90, (S)-2-((R)-6-fluoroisochroman-1-yl)azetidine] | – | – | 63%
5 | Fc1cccc2c1CCO[C@@H]2[C@@H]1CCN1 [Compound I-94, (S)-2-((S)-5-fluoroisochroman-1-yl)azetidine] | 67% | – | sigma (85%)
